Laboratory results reported in publication PMC3830934 (Science (New York, N.Y.), 2002).

Molecular target: T1, human DHFR (Homo sapiens, UniProt P00374)
T1 sequence (P00374 1-187): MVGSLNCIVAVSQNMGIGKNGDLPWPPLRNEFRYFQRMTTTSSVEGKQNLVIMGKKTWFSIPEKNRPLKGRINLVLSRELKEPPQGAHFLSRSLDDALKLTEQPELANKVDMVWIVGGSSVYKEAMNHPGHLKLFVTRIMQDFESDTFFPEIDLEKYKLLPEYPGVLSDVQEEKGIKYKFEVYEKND
Experiment: enzyme kinetic assay
Assay type: biochemical

Ki: 0.012 µM
SMILES: CC1(C)N=C(N)N=C(N)N1OCCCOc1cc(Cl)c(Cl)cc1Cl [WR99210]
